According to PubChem BioAssay AID1963843 (Molecular Pharmacology Branch, DTP, NCI, 2024):
Where “and” joins values, the source holds several entries; their conditions need not be identical. Equal entries are not always repeated.

Tested on: 616215-338-R-J1-PDC complex spheroid viability
Experiment: Anticancer human tumor 616215-338-R-J1-PDC patient-derived colon adenocarcinoma cell line growth inhibition [POLQ]
Settings: for viability, T/C: stronger effect = lower value; active = viability on the fitted dose curve at most 10% of control; inactive = the rest
Procedure: Multicellular complex tumor spheroid response to Polymerase (POL) inhibitors (novobiocin, ART-558, RP6685) in combination with a variety of drugs and investigational agents in selected tumor cell lines
The POL inhibitors (novobiocin, ART-558, and RP6685) were evaluated both individually and in combination with standard of care and investigational anticancer small molecules within a complex spheroid model of solid tumors. . Complex spheroids include a stromal component modeled by human endothelial cells (HUVEC) and fibroblasts modeled by human mesenchymal stem cells (MSCs). The concentration ranges selected for each drug and investigational agent were based upon clinically achievable concentrations if the clinical Cmax of the agent was known.
Compounds. The drugs and investigational agents: novobiocin (NSC847541), ART-558 (NSC835418), RP-6685 (NSC848927), peposertib (NSC802822), ceralasertib (NSC780249), elimusertib (NSC800525), camonsertib (NSC841442), AZD-1390 (NSC803789), olaparib (NSC753686), talazoparib (NSC767125), rucaparib (NSC756644), sotorasib (NSC818433), MRTX-1133 (NSC836407), SN-38 (NSC673596), topotecan (NSC609699), epotoside (NSC141540), doxorubicin (NSC123127), gemcitabine (NSC613327), 5-fluorouracil (NSC19893), paclitaxel (NSC125973), vemurafenib (NSC761431), MSA-2 (NSC828583), SN-011 (NSC837082), adavosertib (NSC754352), prexasertib (NSC758257), carboplatin (NSC241240) and oxaliplatin (NSC266046), were obtained from the National Cancer Institute (NCI) Developmental Therapeutics Program Chemical Repository (21). The FDA-approved anticancer drug set is available from the Developmental Therapeutics Program at https://dtp.cancer.gov/organization/dscb/obtaining/. […] The stock solutions were prepared in dimethyl sulfoxide (DMSO, Sigma-Aldrich, St. Louis, MO, cat. D2650), except for the platinum compounds which were prepared in saline (Quality Biological, Gaithersburg, MD, cat. 114-055-101), at 800-fold the tested concentration and stored at -70 degrees C prior to their use. All drugs and investigational agents were tested over a range starting from a high concentration at or near the clinical Cmax and decreasing in half-log increments. If the clinical Cmax for an agent had not been determined, the highest concentration tested was 10 microM, except for SN-38, which was tested at a high concentration of 1 microM.
Cell Culture. All cells were maintained in an incubator at 37 degrees C and 5% CO2 with 95% humidity. The PDC lines were cultured according to standard operating procedures established by the NCI PDMR (https://pdmr.cancer.gov). Table 3 of the manuscript, lists the cell lines along with the number of the three cell types plated to form the mct-spheroids and media for tumor cell growth. After thawing, all PDC lines, except 997537-175-T-J1-PDC and 415267-285-R-J2-PDC, were cultured in Matrigel-coated flasks prepared with a working solution of 1X Ham's F-12 nutrient mix, without supplementation (Thermo Fisher Scientific, cat. 11765054), 100 U/mL penicillin-streptomycin (Thermo Fisher Scientific, cat. 15140122), and 2.5% Matrigel (Corning Inc., Corning, NY, cat. 354248) for the first three passages. The two PDC lines 997537-175-T-J1-PDC and 415267-285-R-J2-PDC were cultured on uncoated flasks. The 857933-349-R-J2-PDC line was cultured in 6C/Colon 1B media containing advanced DMEM/F-12 (Thermo Fisher Scientific, cat. 12634028), 10 mM HEPES (Thermo Fisher Scientific, cat. 15630080), 1X GlutaMAX supplement (Thermo Fisher Scientific, cat. 35050061), 0.1 mg/mL primocin (InvivoGen, San Diego, CA, cat. ant-pm-2), 10% defined fetal bovine serum, heat inactivated (HyClone Laboratories Inc., Logan, UT, cat. SH30070.03HI), 50% L-WRN conditioned media (ATCC, cat. CRL-3276), 1.25 mM N-Acetyl-L-cysteine (Sigma-Aldrich, cat. A9165), 10 mM nicotinamide (Sigma-Aldrich, cat. N0636), 1X B-27 supplement (Thermo Fisher Scientific, cat. 17504044), 1X N-2 supplement (Thermo Fisher Scientific, cat. […]
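Note: spheroids exposed to compounds for one week before readout.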
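Throughout, for viability, T/C: percent viability relative to DMSO vehicle wells taken as 100%.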

Nc1ccn(C2OC(CO)C(O)C2(F)F)c(=O)n1 (stereo unspecified)
inactive: viability, T/C (compound 0.0316 µM) 49.9% and 23.8% and 51.6% | viability, T/C (compound 0.1 µM) 31.7% and 15.1% and 34.2% | viability, T/C (compound 0.316 µM) 23.7% and 12.2% and 23.2% | viability, T/C (compound 1 µM) 30.1% and 13.1% and 30.2% | viability, T/C (compound 3.16 µM) 31.8% and 14.3% and 32.1% | viability, T/C (compound 10 µM) 34.7% and 16.4% and 33.6%
< 0.0316 µM: IC50 (curve of compound)

C#Cc1c(F)ccc2cc(O)cc(-c3ncc4c(N5CC6CCC(C5)N6)nc(OCC56CCCN5CC(F)C6)nc4c3F)c12 (stereo unspecified) + Nc1ccc(C#CCN(C(=O)Cc2ncc(C(F)(F)F)cc2C(F)(F)F)c2ccc(F)cc2)nn1
6.47 µM: IC50 (curve of first compound, second compound 3.16 µM)
inactive: viability, T/C (second compound 0.0316 µM, first compound 0.0316 µM) 105% | viability, T/C (second compound 0.0316 µM, first compound 0.1 µM) 96.2% | viability, T/C (second compound 0.0316 µM, first compound 0.316 µM) 98.5% | viability, T/C (second compound 0.0316 µM, first compound 1 µM) 88.6% | viability, T/C (second compound 0.0316 µM, first compound 3.16 µM) 62.5% | viability, T/C (second compound 0.0316 µM, first compound 10 µM) 45.3% | viability, T/C (second compound 0.1 µM, first compound 0.0316 µM) 97.1% | viability, T/C (second compound 0.1 µM, first compound 0.1 µM) 95.9% | viability, T/C (second compound 0.1 µM, first compound 0.316 µM) 90.4% | viability, T/C (second compound 0.1 µM, first compound 1 µM) 75.3% | viability, T/C (second compound 0.1 µM, first compound 3.16 µM) 56.9% | viability, T/C (second compound 0.1 µM, first compound 10 µM) 29.2% | viability, T/C (second compound 0.316 µM, first compound 0.0316 µM) 111% | viability, T/C (second compound 0.316 µM, first compound 0.1 µM) 112% | viability, T/C (second compound 0.316 µM, first compound 0.316 µM) 75.2% | viability, T/C (second compound 0.316 µM, first compound 1 µM) 63.3% | viability, T/C (second compound 0.316 µM, first compound 3.16 µM) 58.6% | viability, T/C (second compound 0.316 µM, first compound 10 µM) 39% | viability, T/C (second compound 1 µM, first compound 0.0316 µM) 103% | viability, T/C (second compound 1 µM, first compound 0.1 µM) 96.2% | viability, T/C (second compound 1 µM, first compound 0.316 µM) 91.3% | viability, T/C (second compound 1 µM, first compound 1 µM) 81.9% | viability, T/C (second compound 1 µM, first compound 3.16 µM) 53.7% | viability, T/C (second compound 1 µM, first compound 10 µM) 47.9% | viability, T/C (second compound 3.16 µM, first compound 0.0316 µM) 84.7% | viability, T/C (second compound 3.16 µM, first compound 0.1 µM) 89.2% | viability, T/C (second compound 3.16 µM, first compound 0.316 µM) 99.5% | viability, T/C (second compound 3.16 µM, first compound 1 µM) 68.8% | viability, T/C (second compound 3.16 µM, first compound 3.16 µM) 68.1% | viability, T/C (second compound 3.16 µM, first compound 10 µM) 40.7% | viability, T/C (second compound 10 µM, first compound 0.0316 µM) 92.9% | viability, T/C (second compound 10 µM, first compound 0.1 µM) 86.2% | viability, T/C (second compound 10 µM, first compound 0.316 µM) 74.6% | viability, T/C (second compound 10 µM, first compound 1 µM) 57.1% | viability, T/C (second compound 10 µM, first compound 3.16 µM) 50.6% | viability, T/C (second compound 10 µM, first compound 10 µM) 33.7%
2.49 µM: IC50 (curve of first compound, second compound 10 µM)
6.65 µM: IC50 (curve of first compound, second compound 1 µM)
3.43 µM: IC50 (curve of first compound, second compound 0.316 µM)
4.11 µM: IC50 (curve of first compound, second compound 0.1 µM)
7.31 µM: IC50 (curve of first compound, second compound 0.0316 µM)

CCc1c2c(nc3ccc(O)cc13)-c1cc3c(c(=O)n1C2)COC(=O)[C@]3(O)CC
inactive: viability, T/C (compound 0.00316 µM) 96.8% and 81.2% and 106% | viability, T/C (compound 0.01 µM) 92.7% and 44.1% and 89.9% | viability, T/C (compound 0.0316 µM) 66.5% and 33.8% and 61.6% | viability, T/C (compound 0.1 µM) 51.2% and 26.8% and 51.4% | viability, T/C (compound 0.316 µM) 29.8% and 16.6% and 34.1% | viability, T/C (compound 1 µM) 16.3% and 9.67% and 18%

Cn1ncnc1[C@H]1c2n[nH]c(=O)c3cc(F)cc(c23)N[C@@H]1c1ccc(F)cc1
inactive: viability, T/C (compound 0.000316 µM) 90.3% and 102% and 97.5% | viability, T/C (compound 0.001 µM) 104% and 91.8% and 103% | viability, T/C (compound 0.00316 µM) 102% and 98.1% and 97.2% | viability, T/C (compound 0.01 µM) 94% and 95.9% and 104% | viability, T/C (compound 0.0316 µM) 110% and 96.1% and 101% | viability, T/C (compound 0.1 µM) 105% and 87.5% and 106%
> 0.1 µM: IC50 (curve of compound)

C#Cc1c(F)ccc2cc(O)cc(-c3ncc4c(N5CC6CCC(C5)N6)nc(OCC56CCCN5CC(F)C6)nc4c3F)c12 (stereo unspecified)
inactive: viability, T/C (compound 0.0316 µM) 101% (2×) and 104% | viability, T/C (compound 0.1 µM) 90.4% and 90.9% and 90.6% | viability, T/C (compound 0.316 µM) 104% and 103% and 97.6% | viability, T/C (compound 1 µM) 107% and 71.8% and 104% | viability, T/C (compound 3.16 µM) 109% and 54.8% and 93.5% | viability, T/C (compound 10 µM) 72.4% and 33.1% and 66.3%
> 10 µM and 3.54 µM: IC50 (curve of compound)

CCc1cc2c(N3CCc4c(cc(Cn5ccnc5)cc4-c4cn(C)nc4C(F)(F)F)C3=O)cc(C)nc2c(OC)n1
inactive: viability, T/C (compound 0.0316 µM) 111% and 112% and 115% | viability, T/C (compound 0.1 µM) 99.7% and 102% and 100% | viability, T/C (compound 0.316 µM) 103% and 79.5% and 78.1% | viability, T/C (compound 1 µM) 98.2% and 62.6% and 69.1% | viability, T/C (compound 3.16 µM) 62.3% and 54.4% and 53.4% | viability, T/C (compound 10 µM) 51.3% and 41.3% and 39.7%
> 10 µM and 3.64 µM and 4.13 µM: IC50 (curve of compound)
